Assay results as given in PubChem BioAssay (NCI).
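Five concentrations, 48 hours, 96-well plates. The concentration for full growth arrest is given as TGI.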 Where a SMILES comes first, the peptide text is derived from it. [ ]: non-standard residue; d: D form. pGlu = O=C1CC[CH](C(=O)O)N1

Experiments:
Assay in all cases: growth of human tumour cells (NCI), 48 h
ACHN renal = tested on: ACHN renal
HL-60(TB) leukemia = tested on: HL-60(TB) leukemia
HT29 colon = tested on: HT29 colon
K-562 leukemia = tested on: K-562 leukemia
MDA-N = tested on: MDA-N
NCI-H460 lung = tested on: NCI-H460 lung
OVCAR-4 ovarian = tested on: OVCAR-4 ovarian
RPMI-8226 leukemia = tested on: RPMI-8226 leukemia
SN12C renal = tested on: SN12C renal
SNB-75 CNS = tested on: SNB-75 CNS
XF 498 CNS = tested on: XF 498 CNS

| SMILES | TGI (ACHN renal) | TGI (HL-60(TB) leukemia) | TGI (HT29 colon) | TGI (K-562 leukemia) | TGI (MDA-N) | TGI (NCI-H460 lung) | TGI (OVCAR-4 ovarian) | TGI (RPMI-8226 leukemia) | TGI (SN12C renal) | TGI (SNB-75 CNS) | TGI (XF 498 CNS) |
| --- | --- | --- | --- | --- | --- | --- | --- | --- | --- | --- | --- |
| C#CC1(O)CCC2[C@@H]3CCc4cc(Oc5nc(F)nc(-c6c(C)c(C(=O)OCC)n7ccccc67)n5)ccc4C3CC[C@@]21C (stereo partly drawn) | > 100 µM | > 100 µM | > 100 µM | > 100 µM | > 100 µM | > 100 µM | > 100 µM | > 100 µM | > 100 µM | > 100 µM |  |
| CC1C(C)(C)C23CC12C1(OCCO1)C3Br (stereo not drawn) | > 100 µM | > 100 µM | > 100 µM | > 100 µM | > 100 µM | > 100 µM | > 100 µM | > 100 µM | > 100 µM | > 100 µM |  |
| c1ccc2c3c(ccc2c1)-c1[nH]ncc1CCO3 |  | 41.2 µM | > 100 µM | > 100 µM |  | > 88 µM | > 84.9 µM |  | > 80.4 µM | > 74.9 µM | 79.8 µM |
| C[C@H](Nc1nc(N)c(N=O)c(=O)n1C)C(=O)O | > 10 µM | > 10 µM | > 10 µM | > 10 µM | > 10 µM | > 10 µM | > 10 µM | > 10 µM | > 10 µM | > 10 µM |  |
| COc1ccc(/[N+]([O-])=C/c2ccc(OC(=S)S)c(OC)c2)cc1 | > 100 µM | 53.4 µM | > 100 µM | > 100 µM | > 100 µM | > 100 µM | 49 µM | > 100 µM | > 100 µM | 51.1 µM |  |
| CC(C)(C)c1ccc2c(c1)OP1(Oc3c(Cl)cc(Cl)c4cccnc34)(O2)Oc2ccc(C(C)(C)C)cc2O1 |  | 10.1 µM | 19.5 µM | > 31.6 µM |  | 16.2 µM | 23.3 µM | 19 µM | 30.8 µM | 32.2 µM | 26.7 µM |
| CCn1c(SCC(=O)N/N=C2\SCC(=O)N2c2ccc(C)cc2)nc2ccccc2c1=O | 34.2 µM | > 100 µM | 31.2 µM | > 100 µM | 53.4 µM | 57.4 µM | 48.2 µM | 52.7 µM | 50.4 µM | 36.6 µM |  |
| Cc1nc(-c2ccccc2)cn2c1nc1ccccc12 | 49.4 µM | > 100 µM | > 56.4 µM | > 100 µM | 43.5 µM | 37.1 µM | 65.4 µM | > 100 µM | > 84.7 µM | > 52.2 µM |  |
| CC(C)C1CSC2N1C(=O)C2(OCc1ccccc1)C1CC1 (stereo not drawn) | > 100 µM | > 100 µM | > 100 µM | > 100 µM | > 100 µM | > 100 µM | > 100 µM | > 100 µM | > 100 µM | > 100 µM |  |
| CCOC(=O)CNC(=O)C(CCC(=O)N(C)O)NC(=O)CCC(N)C(=O)O (stereo not drawn) | > 100 µM | > 100 µM | > 100 µM | > 100 µM | > 100 µM | > 100 µM | > 100 µM | > 100 µM | > 100 µM | > 100 µM |  |
| CCOC(=O)c1c(N)sc2c1CC(C)CC2 (stereo not drawn) | > 100 µM | 23.2 µM | 50.3 µM | > 100 µM | > 100 µM | > 100 µM | > 100 µM | 75 µM | > 100 µM | 98.1 µM |  |
| C#C[C@]1(O)CC[C@H]2[C@@H]3CCC4=C/C(=N\OCCN5CCCCC5)CC[C@]4(C)[C@H]3CC[C@@]21C | 22.5 µM | 6.23 µM | 22.4 µM | 8.27 µM | 4.21 µM | 27.4 µM | 40 µM | 15.3 µM | 19.7 µM | 17.1 µM |  |
| CCOC(=O)c1c(O)cn2c1[nH]c1cccc3cccc2c31 | > 100 µM | > 100 µM | > 100 µM | > 100 µM | > 100 µM | > 100 µM | > 100 µM | > 100 µM | > 100 µM | > 100 µM |  |
| Cn1c(-c2ccco2)ccc1-c1ccc(C=O)o1 | > 100 µM | 52.2 µM | > 100 µM | > 100 µM | > 100 µM | > 100 µM | > 100 µM | > 100 µM | > 100 µM | > 100 µM |  |
| CC(C)(C)c1cc(/C=C(\C#N)C2=NCCO2)cc(C(C)(C)C)c1O | 14.5 µM | 5.87 µM | 11.7 µM | 16.5 µM | 16.6 µM | 6.63 µM | 22.8 µM | 4.74 µM | 10.1 µM | 7.47 µM |  |
| COc1ccc(C2CC(c3c(O)ccc4ccccc34)=NN2)cc1OC (stereo not drawn) | 4.82 µM | 63.5 µM | 4.98 µM | > 100 µM | 22.8 µM | 8.24 µM | 20.8 µM | 65 µM | 32.2 µM | 12.2 µM |  |
| CN1CCC2(CC1)SSC1(CCN(C)CC1)S2 | > 100 µM | > 100 µM | > 100 µM | > 100 µM | > 100 µM | > 100 µM | > 100 µM | > 100 µM | > 100 µM | > 100 µM |  |
| CC(NC(=O)C1CCC(=O)N1)C(=O)N1CCCC1C(N)=O (stereo not drawn) ([pGlu]-Ala-Pro-NH2; configuration not given here) | > 100 µM | > 100 µM | > 100 µM | > 100 µM | > 100 µM | > 100 µM | > 100 µM | > 100 µM | > 100 µM | > 100 µM |  |
| CN(C)Cc1cc(Cl)c(O)c(CN(C)C)c1 | > 100 µM | > 100 µM | > 100 µM | > 100 µM | > 100 µM | > 100 µM | > 100 µM | > 100 µM | > 100 µM | > 100 µM |  |
| CCCn1cc2c(=O)[nH]c(SC)nc2n1 | > 100 µM | > 100 µM | > 100 µM |  |  | > 100 µM | > 100 µM | > 100 µM | > 100 µM | > 100 µM | 98.1 µM |
| CC(NC1=NCCO1)c1ccccc1Cl (stereo not drawn) | > 100 µM | > 100 µM | > 100 µM | > 100 µM | > 100 µM | > 100 µM | > 100 µM | > 100 µM | > 100 µM | > 100 µM |  |
| COC(=O)[C@H](Cc1ccccc1)NC(=O)c1ccc(CNC(=O)/C=C/c2ccc(OCc3ccccc3)cc2)cc1 | 33 µM | 11.8 µM | > 58 µM | > 100 µM | 5.43 µM | > 100 µM | 25.2 µM | > 100 µM | 32.6 µM | 31.6 µM |  |
| CCCCSC1=N/C(=C\c2ccccc2O)C(=O)N1 | > 100 µM | > 100 µM | > 100 µM | > 100 µM | > 100 µM | > 100 µM | > 100 µM | > 100 µM | > 100 µM | > 100 µM |  |
| COC(NC(=O)Nc1ccc(C)cc1)(C(F)(F)F)C(F)(F)F | > 100 µM | > 100 µM | > 100 µM | > 100 µM | 94.6 µM | > 100 µM | > 100 µM | 74.8 µM | > 100 µM | > 100 µM |  |
| NS(=O)(=O)c1ccc(NC(=O)N/N=C/c2ccccc2[N+](=O)[O-])cc1 | > 100 µM | > 100 µM | > 100 µM | > 100 µM | 39 µM | > 100 µM | > 100 µM | > 100 µM | > 100 µM | > 100 µM |  |
| S=P1(Sc2ccccc2)Oc2ccc3ccccc3c2-c2c(ccc3ccccc23)O1 |  | > 100 µM | > 100 µM | > 100 µM |  | > 100 µM | > 100 µM | > 100 µM | > 100 µM | > 100 µM | > 100 µM |
| C=C(/C=C/C=C(\C)CCC=C(C)C)[C@@H]1CC[C@]2([C@H](CCCO)/C(=C(/C)C=O)CC[C@]2(C)O)[C@@H]1O | > 100 µM | 35.4 µM | 30.9 µM | 30.9 µM |  | 26.5 µM |  |  | 31.4 µM | 99.4 µM | 32.8 µM |
| Cn1c(-c2ccc(C=O)o2)ccc1-c1ccc(C=O)o1 | > 100 µM | 46 µM | > 100 µM | > 100 µM | > 100 µM | > 100 µM | > 100 µM | > 100 µM | > 100 µM | > 100 µM |  |
| Nc1nc(Cl)cc(NCC2(CCO)CCC2)n1 | > 100 µM | > 100 µM | > 100 µM | > 100 µM | > 100 µM | > 100 µM | > 100 µM | > 100 µM | > 100 µM | > 10 µM |  |
| O=C(Nc1ccccc1)N(CCN(Cc1ccccc1)C(=O)Nc1ccccc1)CCN(Nc1ccccc1)C(=O)Nc1ccccc1 | > 100 µM | > 100 µM | > 100 µM | > 100 µM | > 100 µM | > 100 µM | > 100 µM | > 100 µM | > 100 µM | > 100 µM |  |
